Patent US11161837B2, “Benzofuran derivatives for the treatment of hepatitis C” (BRISTOL-MYERS SQUIBB COMPANY, priority 2016, dated 2021)

These molecules were tested on genotype 1b (Con-1) HCV replicon in Huh-7 cells (assay: HCV replicon luciferase assay). Details: 1b replicon, Huh-7, Renilla luciferase, 3 days incubation.
Assay type: cell-based
Method: The cell lines used to evaluate compounds consist of a human hepatocyte derived cell line (Huh-7) that constitutively expresses a genotype 1b (Con-1) HCV replicon or a genotype 1b (Con-1) HCV replicon with an asparagine replacing the cysteine at amino acid 316, or a genotype 2a (JFH-1) replicon, containing a Renilla luciferase reporter gene. These cells were maintained in Dulbecco's modified Eagle medium (DMEM) containing 10% FBS, 100 U/mL penicillin/streptomycin and 1.0 mg/mL G418.
HCV Replicon Luciferase Assay.
To evaluate compound efficacy, titrated compounds were transferred to sterile 384-well tissue culture treated plates, and the plates were seeded with HCV replicon cells (50 μL at a density of 2.4×10^3 cells/well) in DMEM containing 4% FBS (final DMSO concentration at 0.5%). After 3 days incubation at 37° C., cells were analyzed for Renilla Luciferase activity using the EnduRen substrate (Promega cat # E6485) according to the manufacturer's directions. Briefly, the EnduRen substrate was diluted in DMEM and then added to the plates to a final concentration of 7.5 μM. The plates were incubated for at least 1 h at 37° C. then read on a Viewlux Imager (PerkinElmer) using a luminescence program. The 50% effective concentration (EC50) was calculated using the four-parameter logistic formula noted above.

| SMILES | EC50 [nM] |
| --- | --- |
| CNC(=O)c1c(-c2ccc(F)cc2)oc2cc(CCC(F)(F)F)c(-c3cccc(C(=O)NC4(c5ncccn5)CC(OC(F)F)C4)c3)cc12 (single isomer, unassigned) [Example 29b] | 30 |
| CNC(=O)c1c(-c2ccc(F)cc2)oc2cc(CCC(F)(F)F)c(-c3cc(C(=O)NC4(c5ncccn5)CC(OC(F)(F)F)C4)c(OC)cc3C)cc12 (single isomer, unassigned) [Example 46b, 2-(4-Fluorophenyl)-5-(4-methoxy-2-methyl-5-((1-(pyrimidin-2-yl)-3-(trifluoromethoxy)cyclobutyl)carbamoyl)phenyl)-N-methyl-6-(3,3,3-trifluoropropyl)benzofuran-3-carboxamide] | 80 |
| CNC(=O)c1c(-c2ccc(F)cc2)oc2cc(CCC(F)(F)F)c(-c3cc(C(=O)NC4(C)CC(OC(F)F)C4)c(OC)cc3C)cc12 (single isomer, unassigned) [Example 53b, 5-(5-((3-(Difluoromethoxy)-1-methylcyclobutyl)carbamoyl)-4-methoxy-2-methylphenyl)-2-(4-fluorophenyl)-N-methyl-6-(3,3,3-trifluoropropyl)benzofuran-3-carboxamide] | 60 |
| CCCc1cc2oc(-c3ccc(F)cc3)c(C(=O)NC)c2cc1-c1cccc(C(=O)NC2(C)CC(OC(F)F)C2)c1 (single isomer, unassigned) [Example 55b, 5-(3-((3-(Difluoromethoxy)-1-methylcyclobutyl)carbamoyl)phenyl)-2-(4-fluorophenyl)-N-methyl-6-propylbenzofuran-3-carboxamide] | 30 |
| CCCc1cc2oc(-c3ccc(F)cc3)c(C(=O)NC)c2cc1-c1cc(C(=O)NC2(C)CC(OC(F)F)C2)c(OC)cc1C (single isomer, unassigned) [Example 57b, 5-(5-((3-(Difluoromethoxy)-1-methylcyclobutyl)carbamoyl)-4-methoxy-2-methylphenyl)-2-(4-fluorophenyl)-N-methyl-6-propylbenzofuran-3-carboxamide] | 70 |
| CCCc1cc2oc(-c3ccc(F)cc3)c(C(=O)NC)c2cc1-c1ccc(F)c(C(=O)NC2(C)CC(OC(F)F)C2)c1 (single isomer, unassigned) [Example 61b, 5-(3-((3-(Difluoromethoxy)-1-methylcyclobutyl)carbamoyl)-4-fluorophenyl)-2-(4-fluorophenyl)-N-methyl-6-propylbenzofuran-3-carboxamide] | 20 |
| CCOc1cc2oc(-c3ccc(F)cc3)c(C(=O)NC)c2cc1-c1cccc(C(=O)NC2(c3ncccn3)CC(OC(F)F)C2)c1 (single isomer, unassigned) [Example 67a, 5-(3-((3-(Difluoromethoxy)-1-(pyrimidin-2-yl)cyclobutyl)carbamoyl)phenyl)-6-ethoxy-2-(4-fluorophenyl)-N-methylbenzofuran-3-carboxamide] | 30 |

Same assay, conditions: Hepatitis C virus, Huh-7, 72 h, 1b replicon, Huh-7, Renilla luciferase, 3 days incubation

| SMILES | EC50 [nM] |
| --- | --- |
| CNC(=O)c1c(-c2ccc(F)cc2)oc2cc(CCC(F)(F)F)c(-c3cc(C(=O)NC4(c5ncccn5)CC(OC(F)(F)F)C4)c(OC)cc3C)cc12 (single isomer, unassigned) [Example 46a, 2-(4-Fluorophenyl)-5-(4-methoxy-2-methyl-5-((1-(pyrimidin-2-yl)-3-(trifluoromethoxy)cyclobutyl)carbamoyl)phenyl)-N-methyl-6-(3,3,3-trifluoropropyl)benzofuran-3-carboxamide] | 40 |
| CCCc1cc2oc(-c3ccc(F)cc3)c(C(=O)NC)c2cc1-c1ccc(F)c(C(=O)NC2(c3ncccn3)CC(OC(F)(F)F)C2)c1 (single isomer, unassigned) [Example 48a, 5-(4-Fluoro-3-((1-(pyrimidin-2-yl)-3-(trifluoromethoxy)cyclobutyl)carbamoyl)phenyl)-2-(4-fluorophenyl)-N-methyl-6-propylbenzofuran-3-carboxamide] | 20 |
| CNC(=O)c1c(-c2ccc(F)cc2)oc2cc(CCC(F)(F)F)c(-c3ccc(F)c(C(=O)NC4(c5ncccn5)CC(OC(F)(F)F)C4)c3)cc12 (single isomer, unassigned) [Example 49a, 5-(4-Fluoro-3-((1-(pyrimidin-2-yl)-3-(trifluoromethoxy)cyclobutyl)carbamoyl)phenyl)-2-(4-fluorophenyl)-N-methyl-6-(3,3,3-trifluoropropyl)benzofuran-3-carboxamide] | 20 |
| CCCc1cc2oc(-c3ccc(F)cc3)c(C(=O)NC)c2cc1-c1cc(C(=O)NC2(c3ncccn3)CC(OC(F)(F)F)C2)c(OC)cc1C (single isomer, unassigned) [Example 50a, 2-(4-Fluorophenyl)-5-(4-methoxy-2-methyl-5-((1-(pyrimidin-2-yl)-3-(trifluoromethoxy)cyclobutyl)carbamoyl)phenyl)-N-methyl-6-propylbenzofuran-3-carboxamide] | 120 |
| CNC(=O)c1c(-c2ccc(F)cc2)oc2cc(CCC(F)(F)F)c(-c3cc(C(=O)NC4(C)CC(OC(F)F)C4)c(OC)cc3C)cc12 (single isomer, unassigned) [Example 53a, 5-(5-((3-(Difluoromethoxy)-1-methylcyclobutyl)carbamoyl)-4-methoxy-2-methylphenyl)-2-(4-fluorophenyl)-N-methyl-6-(3,3,3-trifluoropropyl)benzofuran-3-carboxamide] | 60 |
| CCCc1cc2oc(-c3ccc(F)cc3)c(C(=O)NC)c2cc1-c1cccc(C(=O)NC2(C)CC(OC(F)F)C2)c1 (single isomer, unassigned) [Example 55a, 5-(3-((3-(Difluoromethoxy)-1-methylcyclobutyl)carbamoyl)phenyl)-2-(4-fluorophenyl)-N-methyl-6-propylbenzofuran-3-carboxamide] | 30 |
| CNC(=O)c1c(-c2ccc(F)cc2)oc2cc(CCC(F)(F)F)c(-c3cccc(C(=O)NC4(C)CC(OC(F)F)C4)c3)cc12 (single isomer, unassigned) [Example 59a, 5-(3-((3-(Difluoromethoxy)-1-methylcyclobutyl)carbamoyl)phenyl)-2-(4-fluorophenyl)-N-methyl-6-(3,3,3-trifluoropropyl)benzofuran-3-carboxamide] | 30 |
| CCCc1cc2oc(-c3ccc(F)cc3)c(C(=O)NC)c2cc1-c1ccc(F)c(C(=O)NC2(C)CC(OC(F)F)C2)c1 (single isomer, unassigned) [Example 61a, 5-(3-((3-(Difluoromethoxy)-1-methylcyclobutyl)carbamoyl)-4-fluorophenyl)-2-(4-fluorophenyl)-N-methyl-6-propylbenzofuran-3-carboxamide] | 20 |
| CNC(=O)c1c(-c2ccc(F)cc2)oc2cc(CCC(F)(F)F)c(-c3ccc(F)c(C(=O)NC4(C)CC(OC(F)F)C4)c3)cc12 (single isomer, unassigned) [Example 63a, 5-(3-((3-(Difluoromethoxy)-1-methylcyclobutyl)carbamoyl)-4-fluorophenyl)-2-(4-fluorophenyl)-N-methyl-6-(3,3,3-trifluoropropyl)benzofuran-3-carboxamide] | 10 |
| CCN(c1cc2oc(-c3ccc(F)cc3)c(C(=O)NC)c2c(F)c1-c1cccc(C(=O)NC2(c3ncccn3)CC(OC(F)F)C2)c1)S(C)(=O)=O (centres unmarked) [Example 21, 5-(3-((3-(Difluoromethoxy)-1-(pyrimidin-2-yl)cyclobutyl)carbamoyl)phenyl)-6-(N-ethylmethylsulfonamido)-4-fluoro-2-(4-fluorophenyl)-N-methylbenzofuran-3-carboxamide] | 2.23 |
